The text below walks through data of PMC3806459, “Cyclodextrin Formulation of the Marine Natural Product Pseudopterosin A Uncovers Optimal Pharmacodynamics in Proliferation Studies of Human Umbilical Vein Endothelial Cells” (Marine Drugs, 2013).

The subject of data set [1] is HUVEC cells. Description: HUVEC cytotoxicity elicited by drug formulations (LDH release). The settings on record: vehicle alone: 0.02% DMSO, 0.016% Cremophor EL, 0.05% HPβCD; 42 h, growth factor depleted media, 37 °C; n = 4.
Procedure: HUVEC LDH release with (A) 0.02% DMSO (B) 0.016% Cremophor EL and (C) 0.05% HPβCD after 42 h in growth factor depleted media at 37 °C. Data are presented as mean ± SEM (n = 4).
Dimethylsulfoxide (DMSO) is the most widely utilized solvent, and is used extensively in biological assays for attaining aqueous solubility for non-polar drug molecules. To determine the potential cytotoxic effects associated with DMSO, Cremophor EL, and HPβCD in a HUVEC system, we report three conditions that were chosen after considering the minimum required vehicle concentration for PsA (drug) solubility.
All cell culture experiments were performed using HUVEC cells initially seeded at 3 × 10^5 cells/75 cm^2 flask and fed every 1–2 days with fresh EGM-2 complete culture media (EBM-2 basal media with hVEGF, hFGF, hIGF, hEGF, hydrocortisone, ascorbic acid, heparin, 2% FBS, and GA-1000). For each experiment cells were split at 80% confluence. All experiments were conducted between generations 4 and 10. Starvation media consisted of EBM-2 basal media with 0.1% FBS, and GA-1000 (antibiotic mixture). Growth factor depleted media consisted of EBM-2 basal media with 2% FBS, hydrocortisone, ascorbic acid, heparin, and GA-1000.
In data set [2] the test system is PMA induced mouse ear edema. Briefly: phorbol myristate acetate (PMA) induced mouse ear edema assay. In kind it is in vivo. The settings on record: topical 50 µg/ear with PMA 2 µg/ear, 3 h 20 min; (1/SA) in milligrams of inhibited edema per mol of drug; n = 10. As to the method:
The compounds were then assessed using the standard phorbol myristate acetate (PMA) induced mouse ear edema assay to determine their anti-inflammatory specific activity. In this assay, the specific activity of the drug, SA, is expressed as log(1/SA). For the mouse ear model, the molar concentration of the drug was calculated using Equation 2: SA = (mol of drug) (∆ in edema from control)^−1(2) where the difference in edema from control, ∆, refers to the difference in the average weight of the mouse ear between treated and untreated biopsies. The outcome, (1/SA), is expressed in units of milligrams of inhibited edema per mol of drug. […] Note Table 1.
Male Swiss Webster albino mice were briefly anesthetized with halothane. Compounds were topically applied to the inside pinnae of the ears of the mice in a solution containing the edema-causing irritant PMA. PMA alone (2 µg/ear) or in combination with the test compound (50 µg/ear) were dissolved in acetone and applied to the left ears (5 mice per treatment group, n = 10/compound), and acetone alone was applied to all right ears. After 3 h and 20 min incubation, the mice were euthanized, the ears removed and a 6 mm diameter biopsy was taken from the center of each ear and immediately weighed. Edema was measured by subtracting the weight of the right ear (acetone control) from the weight of the left ear (treated). Compounds that were not soluble in 100% acetone were dissolved in 20% ethanol: 80% acetone v/v. Results were recorded as % decrease (inhibition) in edema relative to the PMA control group edema.

A short description of data set [3]: log P by reverse phase HPLC. In kind it is physicochemical. To be noted: RP-HPLC retention time vs toluene and triphenylene; n = 4; read-out: Direct log P. The text has this:
Reverse phase HPLC (RP-HPLC) has been previously used to measure the logarithm of the octanol-water partition coefficient (log P) of many compounds [11]. To obtain the log P values recorded herein, the retention times of the compounds of interest (Table 1) along with the retention times of internal standards (toluene and triphenylene) were utilized. The resulting quantities were then substituted into Equation 1: [drawing 1] (1) where the abbreviation tol refers to toluene, triph to triphenylene, and t to the retention time. Details concerning how this equation was derived have been described by Donovan and Pescatore.
HPLC recordings were achieved using a Hewlett Packard HP/Agilent 1100 HPLC system connected to a 1 cm × 4.6 mm, 5 µm aPHera™ C18 Polymer HPLC column (catalog number 56130AST). Colorimetric assays were performed on a Molecular Devices Vmax microplate reader.

A short description of data set [4]: stability of the cyclodextrin inclusion complex by HPLC and NMR. Type of data set: physicochemical. The settings on record: PsA inclusion complex in HPβCD; observed by HPLC and NMR. As to the method:
Hydroxypropyl-beta-cyclodextrin (HPβCD) was added to DI-water at a concentration of 20% w/v. The mixture was then vortexed and sonicated briefly to yield a colorless, transparent, slightly viscous liquid. Separately, a given quantity of pseudopterosin A (PsA) was then solubilized in 100% methanol to yield a yellow, transparent liquid. An aliquot of this solution was then added to a culture tube and dried under inert atmosphere yielding an off-white solid. The previously prepared hydroxypropyl-beta-cyclodextrin solution was then added and vortexed for 10 min. The mixture was orbitally shaken at 4 °C for at least 7 days prior to use to ensure equilibration of the cyclodextrin drug complex. […] Stability was conserved at least 14 days, as observed by HPLC and NMR.

Data set [5] deals with HUVEC cells. Description: WST-1 cell proliferation assay. In kind it is cell-based, human. As for the experimental part: Figure 4 PsA Potently Activates HUVEC Proliferation. […] Note saturation kinetics. Cytotoxicity is illustrated as a vertical dashed line at 1.5 × 10^−5 M in all vehicles tested. The percentage increase was calculated as [100 × (T/C)] where T/C is defined as […]. Data are presented as mean ± SEM (n = 16).
(§1) For each experiment cells were split at 80% confluence. All experiments were conducted between generations 4 and 10.
HUVEC were harvested from a T-75 plate by trypsinization and resuspended in EGM-2 complete culture media. Cells were plated at 500 cells per well of a 96-well plate and incubated overnight at 37 °C in a 5% CO2 atmosphere. EGM-2 complete culture media was removed and replaced with starvation media for 8 h. During this time, drug dilutions were prepared in growth factor depleted media. Starvation media was replaced with drug dilution in growth factor depleted media and incubated at 37 °C in a 5% CO2 atmosphere. After 41 h, 10 µL of WST-1 reagent was added to each well and incubated for 1 h. Plates were then read on a multiplate reader at 450 nm with background reference of 650 nm.

Data set [6] deals with human adenosine A2B receptor. More on the design: method as in doi:10.1016/j.tet.2009.09.021. To be noted: DMSO formulation; high amount of non-specific binding; ref [4]; cited from earlier work.
Data set [7] has as its system human adenosine A2A receptor. Set-up: method as in doi:10.1016/j.tet.2009.09.021. The settings on record: DMSO formulation; high amount of non-specific binding; ref [4]; cited from earlier work.
Another data set can be described thus: aqueous solubility. Type of data set: physicochemical. The settings on record: without DMSO, Cremophor or cyclodextrin. The text has this:
[…] Reverse phase HPLC was utilized as described in Section 3.3 above to confirm the quantity of solubilized drug that remained unchanged between formulations.

Data set [8] concerns human adenosine A3 receptor. More on the design: method as in doi:10.1016/j.tet.2009.09.021. To be noted: DMSO formulation; high amount of non-specific binding; ref [4]; cited from earlier work.
In data set [9] the test system is human adenosine A1 receptor. Set-up: method as in doi:10.1016/j.tet.2009.09.021. The settings on record: DMSO formulation; high amount of non-specific binding; ref [4]; cited from earlier work.
In data set [10] the test system is HUVEC cells. Description: scratch migration assay. In kind it is cell-based, human. The settings on record: 3.9 × 10^−8 M PsA in 0.05% HPβCD, depleted media, over 10 h; n = 16. As for the experimental part:
The in vitro scratch assay is commonly used to simulate cellular events that accompany the presence of a wound. Here, a thin scratch made in a cellular monolayer mimics the wound. The migration of cells in response to the scratch is then monitored using microscopic images at various time points to determine the rate of migration.
as §1
HUVEC were harvested from a T-75 plate by trypsinization and resuspended in EGM-2 complete culture media and were plated into T-25 cell culture flasks and allowed to grow to approx 90% confluence. EGM-2 complete culture media was then removed and replaced with starvation media for 8 h. A uniform scratch in the monolayer was then produced using a sterile pipette tip approximately 500 µm in width. Starvation media was replaced with 5 mL of either PsA in drug dosing media, or HPβCD in drug dosing media, or HPβCD in EGM-2 complete culture media. Microscopic images were taken at 400 times magnification every 5 min beginning at t = 0, and continuing until t = 10 h. Images were analyzed by determining the distance between cells on either side of scratch over time. Percent scratch closure was set to be a function of 1 − (average distance at each time point/average width of scratch).

For data set [11], the system named is HUVEC cells. More on the design: method as in PMID 2875457, PMID 3574294, PMID 21556163. The settings on record: all formulation systems tested; ref [1],[22],[23]; cited from earlier work.
The test system of the next data set is human neutrophils. More on the design: method as in ref [3] = [3]; 3. Luedke E.S. The Identification and Characterization of Pseudopterosins: Anti-Inflammatory Agents Isolated from the Gorgonian Coral Pseudopterogorgia elisabethae Ph.D. Thesis University of Californi. The settings on record: in vitro; ref [3]; cited from earlier work.
For the next data set, the system named is wound healing. More on the design: method as in PMID 20363514. The settings on record: topical; ref [5]; cited from earlier work.
A further data set has as its system early wound repair. More on the design: method as in ref [7] = [7]; 7. Vimrx Pharmaceuticals New Drug Application VM 301 for Use in Phase I/IIA Clinical Trials IND 60,606 12 7 2000. To be noted: Phase II, double blind; ref [7]; cited from earlier work.

On to `C[S+](C)[O-]` [DMSO, Dimethylsulfoxide], for which the “LDH release (cytotoxicity)” value in the data set on HUVEC cells [1] is recorded as 18.4% ± 1.6%.

Take `CC(C)=C[C@H]1C[C@H](C)[C@H]2CC[C@H](C)c3c(O[C@@H]4O[C@@H](C)[C@@H](O)[C@@H](O)[C@@H]4O)c(O)c(C)c1c32` [Analog 5, iso-PsE]: the “log(1/SA) (anti-inflammatory specific activity)” value (shortened to “log(1/SA)”) in data set [2] is on record as 8.02 ± 0.02 mg/mol. Moreover, the chromatographic logP in data set [3] came to 4.59 ± 0.05.

Consider `CC(C)=C[C@H]1C[C@H](C)[C@H]2CC[C@H](C)c3c(O[C@@H]4OC[C@@H](O)[C@H](O)[C@H]4O)c(O)c(C)c1c32` [Analog 4, Pseudopterosin A], for which, in [4], the stability conserved result was “at least 14 days”. Further, the increase in proliferation with HUVEC cells [5] (1.0 × 10^−7 M PsA in HPβCD) is recorded as 25%; in the data set with HUVEC cells [5] (PsA in 0.02% DMSO, 42 h, compared to DMSO alone) it was 30% ± 4.8%. In addition, the “increase in potency of HPβCD formulation over DMSO formulation” value in the data set on HUVEC cells [5] (HUVEC proliferation) came out at 200 fold. In addition, the “increased HUVEC proliferation” value with HUVEC cells [5] (PsA in 0.016% Cremophor EL, 42 h) came to 15%. In addition, the dissociation constant (Kd) in the data set on HUVEC cells [5] (PsA in 0.05% HPβCD, from analysis of proliferation dose response) came to 14.5 nM. Besides, the “concentration at which cytotoxicity occurred” value in the data set with HUVEC cells [5] (all formulations/vehicles tested in HUVEC cells) was at least 15 µM. The “log(1/SA)” value in data set [2] worked out at 8.08 ± 0.01 mg/mol. The binding affinity result in data set [6], in [7], in data set [8] and in data set [9] was “micromolar” each time. The “solubility in an aqueous medium” value in “aqueous solubility” is given as “low solubility”. In addition, the chromatographic logP in data set [3] is 4.42 ± 0.06. Besides, the “rate of HUVEC cell migration” value with HUVEC cells [10] came to 9.98 ± 1.2 µm h^−1. The cytotoxic concentration in the data set on HUVEC cells [11] is above 10 µM. The “effect on calcium ionophore induced degranulation and infiltration” value with human neutrophils is recorded as “inhibited”.

As for `COc1c(C)c2c3c(c1O[C@@H]1OC[C@@H](O)[C@H](O)[C@H]1O)[C@@H](C)CC[C@@H]3[C@@H](C)C[C@@H]2C=C(C)C` [Analog 3, PsA methyl ether], the chromatographic logP in data set [3] is 4.37 ± 0.02. For the same molecule, in the data set on wound healing, the “efficacy in wound healing” value was “topical efficacy”. The “effect on early wound repair above vehicle alone” value with early wound repair is “increased angiogenesis, granulation, and re-epithelialization”.

As for `CC(C)=CC1CC(C)C2CCC(C)C3=C2C1=C(C)C(=O)C31OC2OC(C)C(O)C(O)C2O1` (stereo not shown) [Analog 1, pseudopterosin keto ketal], the “log(1/SA)” value in data set [2] was 7.63 ± 0.06 mg/mol. For the same molecule, in data set [3], the chromatographic logP worked out at 3.95 ± 0.02.
